The values that follow are results of earlier work, collected in patent publication US20090311315A1, “Multimicroparticulate Oral Pharmaceutical Form with Modified Release of Angiotensin II Receptor Antagonists” (FLAMEL TECHNOLOGIES, S.A., priority 2005, published 2009).

The conditions of the data set: in vivo.

Regarding `CCOc1nc2cccc(C(=O)O)c2n1Cc1ccc(-c2ccccc2-c2nnn[nH]2)cc1` [cardesartan], the elimination half-life is 4 to 9 h.

Regarding `CCCCC(=O)N(Cc1ccc(-c2ccccc2-c2nnn[nH]2)cc1)[C@H](C(=O)O)C(C)C` [valsartan], the elimination half-life was 4 to 6 h.

For eprosartan cilexitil, the elimination half-life was 5 to 9 h.
